The text below walks through data of patent US12509437B2, “Substituted thiophene carboxamides and derivatives thereof as microbicides” (Bayer Aktiengesellschaft, priority 2019, dated 2025).

Structures are written as SMILES. Like-named read-outs stand apart in the source and are kept apart here.

Series [1] concerns Uromyces appendiculatus. Description: In vivo preventive test on Uromyces appendiculatus (bean rust). The following applies: 240 h, sprayed 72 hours before inoculation, evaluated 10 days after inoculation, read-out: efficacy; for pest or weed control at 31 ppm: 31 ppm of active ingredient; for pest or weed control at 500 ppm: 500 ppm of active ingredient; for pest or weed control at 125 ppm: 125 ppm of active ingredient. How it is done:
(§1) The tested active ingredients were prepared by homogenization in a mixture of acetone/Dimethyl sulfoxide/Tween®, and then diluted with water to obtain the desired active material concentration.
The young plants of bean were treated by spraying the active ingredient prepared as described above. Control plants were treated only with an aqueous solution of acetone/Dimethyl sulfoxide/Tween®.
After 72 hours, the plants were contaminated by spraying the leaves with an aqueous suspension of Uromyces appendiculatus spores. The contaminated bean plants were incubated for 24 hours at 20° C. and at 100% relative humidity and then for 9 days at 20° C. and at 70-80% relative humidity.
The test was evaluated 10 days after the inoculation. 0% means an efficacy which corresponds to that of the control plants while an efficacy of 100% means that no disease was observed.

In series [2] the test system is Xanthomonas campestris pv. campestris. As to the kind of experiment: Xanthomonas campestris pv. campestris in vitro cell test. The following applies: 24 h of incubation, read-out: efficacy (inhibition of bacteria growth; no direct activity); for inhibition at 5 ppm: 5 ppm of active ingredient; for inhibition at 20 ppm: 20 ppm of active ingredient. The format is cell-based. How it is done:
(§2) • Solvent: DMSO • Culture medium: LB broth medium (Luria Broth Miller) Sigma • Inoculum: bacteria suspension Compounds were solubilized in DMSO and the solution used to prepare the required range of concentrations. The final concentration of DMSO used in the assay was ≤1%. Inoculum was prepared from a pre-culture of bacteria grown in liquid medium and diluted to the desired optical density (OD). Compounds were evaluated for their ability to inhibit bacteria growth in liquid culture assay. The compounds were added in the desired concentrations to culture medium containing the bacteria suspension. After 24 h of incubation, the efficacy of compounds was determined by spectrometric measurement of bacteria growth. Inhibition was determined by comparing the absorbance values in wells containing the compounds with the absorbance in control wells without active ingredients.

Series [3] in a line: LogP by HPLC on reversed phase columns (EEC directive 79/831 Annex V.A8). The format is physicochemical. The following applies: reversed phase HPLC columns. The method, boiled down:
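LogP derived from retention time, interpolated linearly between bracketing alkan-2-one standards (3 to 16 carbons). Where several values exist for one method, all are listed with "+"; UV spectra 200–400 nm at peak maxima gave lambda-max.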

Series [4] concerns Colletotrichum lindemuthianum. As to the kind of experiment: Colletotrichum lindemuthianum in vitro cell test. The format is cell-based. The following applies: 144 h, 6 days incubation, read-out: efficacy (inhibition of fungal growth; no direct activity); for inhibition at 5 ppm: 5 ppm of active ingredient; for inhibition at 20 ppm: 20 ppm of active ingredient. How it is done: (§3) • Solvent: DMSO • Culture medium: 14.6 g anhydrous D-glucose (VWR), 7.1 g Mycological Peptone (Oxoid), 1.4 g granulated Yeast Extract (Merck), QSP 1 liter • Inoculum: spores suspension Fungicides were solubilized in DMSO and the solution used to prepare the required range of concentrations. The final concentration of DMSO used in the assay was ≤[…]1%. A spore suspension of C. lindemuthianum was prepared and diluted to the desired spore density. Fungicides were evaluated for their ability to inhibit spores germination and mycelium growth in liquid culture assay. The compounds were added in the desired concentration to the culture medium with spores. After 6 days incubation, fungi-toxicity of compounds was determined by spectrometric measurement of mycelium growth. Inhibition of fungal growth was determined by comparing the absorbance values in wells containing the fungicides with the absorbance in control wells without fungicides.

For series [5], the system named is Alternaria alternata. As to the kind of experiment: Alternaria alternata in vitro cell test. The format is cell-based. The following applies: 120 h, 5 days incubation, read-out: efficacy (inhibition of fungal growth; no direct activity); for inhibition at 5 ppm: 5 ppm of active ingredient; for inhibition at 20 ppm: 20 ppm of active ingredient. How it is done:
as §3, with “of A. alternata” for “of C. lindemuthianum”, “inhibit spore” for “inhibit spores”, “After 5” for “After 6”

For series [6], the system named is Pseudomonas syringae pv. tomato. Description: Pseudomonas syringae pv. tomato in vitro cell test. In kind it is cell-based. The following applies: 20 ppm of active ingredient, 24 h of incubation, read-out: efficacy (inhibition of bacteria growth; no direct activity). How it is done:
as §2

Series [7] has as its system Peronospora parasitica. As to the kind of experiment: In vivo preventive test on Peronospora parasitica (Crucifer downy mildew) on cabbage. The following applies: Hyaloperonospora parasitica, 120 h, sprayed 72 hours before inoculation, evaluated 5 days after inoculation, read-out: efficacy; for pest or weed control at 31 ppm: 31 ppm of active ingredient; for pest or weed control at 125 ppm: 125 ppm of active ingredient; for pest or weed control at 500 ppm: 500 ppm of active ingredient. As for the experimental part: as §1
(§4) The young plants of cabbage were treated by spraying the active ingredient prepared as described above. Control plants were treated only with an aqueous solution of acetone/Dimethyl sulfoxide/Tween®.
After 72 hours, the plants were contaminated by spraying the leaves with an aqueous suspension of Peronospora parasitica spores. The contaminated cabbage plants were incubated for 5 days at 20° C. and at 100% relative humidity.
The test was evaluated 5 days after the inoculation. 0% means an efficacy which corresponds to that of the control plants while an efficacy of 100% means that no disease was observed.

In series [8] the test system is salicylate responsive promoter sequence of the PR1 (pathogenesis-related protein I) gene (AT2G14610). As to the kind of experiment: Induction of defense gene expression in Arabidopsis thaliana (PR1 promoter-GFP reporter plants). The following applies: 72 h, 3rd day after spraying, mock treated leaves set as 1.00, read-out: relative fluorescence value. In kind it is in vivo. As for the experimental part: Arabidopsis thaliana reporter plants containing the coding sequence of a green fluorescent protein (GFP) linked to the salicylate responsive promoter sequence of the PR1 (pathogenesis-related protein I) gene (AT2G14610) were grown for five days and then sprayed with compounds. On the 3rd day after spraying, plant fluorescence was assessed with a MacroFluo instrument from Leica Microsystems (Wetzlar, Germany). Fluorescences were quantified with the Meta-Morph Microscopy Automation & Image Analysis Software (Molecular Devices, Sunnyvale, Calif., United States). Background fluorescence in mock treated leaves was set as 1.00.

The test system of series [9] is Xanthomonas campestris pv. campestris. As to the kind of experiment: In vivo preventive test on Xanthomonas campestris pv. campestris (black rot on cabbage). The following applies: Xanthomonas campestris, 500 ppm of active ingredient, sprayed 72 hours before inoculation, evaluated 8 or 10 days after inoculation, read-out: efficacy. How it is done:
as §1, §4
After 72 hours, the plants were contaminated by spraying the leaves with an aqueous bacteria suspension of Xanthomonas campestris pv. campestris. The contaminated cabbage plants were incubated for 8 or 10 days at 27° C. at 95% relative humidity.
The test was evaluated 8 or 10 days after the inoculation. 0% means an efficacy which corresponds to that of the control plants while an efficacy of 100% means that no disease was observed.

Where [10] appears, read: preparation examples, method not indicated, read-out: Log P.

With `COC(=O)C1(NC(=O)c2sc(Br)c(Br)c2C)CSC1` [I.015], in series [1], the pest or weed control at 31 ppm was 90 to 100% and the pest or weed control at 500 ppm lay within 90 to 100%. In addition, in series [2], the inhibition at 5 ppm is at most 30% and the inhibition at 20 ppm is at most 30%. Also, the chromatographic logP in series [3] (method [a]) was 3.31. Besides, in [4], the inhibition at 5 ppm is at most 30% and the inhibition at 20 ppm was at most 30%. Further, the inhibition at 5 ppm in [5] is at most 30%. The inhibition at 20 ppm in series [6] is at most 30%. Moreover, in series [7], the pest or weed control at 31 ppm was 90 to 100%, the pest or weed control at 125 ppm fell in the range of 90 to 100% and the pest or weed control at 500 ppm was 90 to 100%. Besides, in series [8], the fold induction at 75 ppm was over 2 and the fold induction at 300 ppm is over 2.
In the case of `COC(=O)C1(NC(=O)c2sc(Br)c(Br)c2C)CCC(F)(F)CC1` [I.005], the pest or weed control at 500 ppm in series [1] fell in the range of 90 to 100%. Further, the inhibition at 5 ppm in series [2], in [4] and in [5] was at most 30% throughout. The inhibition at 20 ppm in [2], in series [5] and in series [6] was at most 30% in each case. This compound also yielded a chromatographic logP in [3] (method [a]) of 3.83.
For the compound `CCOC(=O)C(CC(N)=O)NC(=O)c1sc(Br)c(Br)c1C` (stereo not shown) [I.016], in series [1], the pest or weed control at 31 ppm was in the range of 90 to 100%, the pest or weed control at 125 ppm fell in the range of 90 to 100% and the pest or weed control at 500 ppm was 80 to 89%. Moreover, in [2], the inhibition at 5 ppm was at most 30% and the inhibition at 20 ppm is at most 30%. Further, in [3] (method [a]), the chromatographic logP is 2.26. Also, in [4], the inhibition at 5 ppm was at most 30% and the inhibition at 20 ppm was at most 30%. For the same compound, in series [5], the inhibition at 5 ppm is at most 30% and the inhibition at 20 ppm was at most 30%. For the same compound, in series [6], the inhibition at 20 ppm was at most 30%. Further, in series [7], the pest or weed control at 31 ppm was in the range of 90 to 100%, the pest or weed control at 125 ppm is 90 to 100% and the pest or weed control at 500 ppm was in the range of 90 to 100%. In series [8], the fold induction at 75 ppm was over 2 and the fold induction at 300 ppm is over 2.
For the compound `CCOC(=O)C1(NC(=O)CNC(=O)c2sc(Br)c(Br)c2C)CC1` [I.024, ethyl 1-({N-[(4,5-dibromo-3-methyl-2-thienyl)carbonyl]glycyl}amino)cyclopropanecarboxylate], the inhibition at 5 ppm in series [2], in [4] and in series [5] was at most 30% throughout. In addition, the inhibition at 20 ppm in series [2], in series [4], in series [5] and in [6] was at most 30% throughout. Moreover, in series [3] (setting [10]), the chromatographic logP stood at 2.55. The fold induction at 75 ppm in [8] is over 2.
For `CONC(=O)[C@@H](NC(=O)c1sc(Br)c(Br)c1C)C(C)C` [I.074, N^2-[(4,5-dibromo-3-methyl-2-thienyl)carbonyl]-N-methoxyvalinamide], the inhibition at 5 ppm in series [2], in series [4] and in [5] was at most 30% each time. The inhibition at 20 ppm in series [2], in series [4], in series [5] and in [6] was at most 30% each time. The chromatographic logP in series [3] (setting [10]) was 2.77. Besides, the fold induction at 300 ppm in series [8] is over 2.
On to `COC(=O)CC[C@H](NC(=O)c1sc(Br)c(Br)c1C)C(=O)OC` [I.136], for which, in [1], the pest or weed control at 31 ppm lay within 90 to 100%, the pest or weed control at 125 ppm fell in the range of 90 to 100% and the pest or weed control at 500 ppm was 90 to 100%. For the same compound, in [2], the inhibition at 5 ppm was at most 30% and the inhibition at 20 ppm was at most 30%. The compound further yielded a chromatographic logP in series [3] (method [a]) of 3.17. Further, in series [4], the inhibition at 5 ppm is at most 30% and the inhibition at 20 ppm was at most 30%. Further, in series [5], the inhibition at 5 ppm is at most 30% and the inhibition at 20 ppm was at most 30%. Moreover, in series [6], the inhibition at 20 ppm was at most 30%. In addition, in series [7], the pest or weed control at 31 ppm fell in the range of 80 to 89%, the pest or weed control at 125 ppm fell in the range of 90 to 100% and the pest or weed control at 500 ppm fell in the range of 90 to 100%. In series [8], the fold induction at 75 ppm was over 2 and the fold induction at 300 ppm is over 2.
Turning to `CCOC(=O)C(COC)NC(=O)c1sc(Br)c(Br)c1C` (stereo not shown) [I.034], the figures for the pest or weed control at 500 ppm in series [1] and in [9] were 90 to 100% and 80 to 89%, respectively. Further, the inhibition at 5 ppm in series [2], in series [4] and in series [5] was at most 30% throughout. The inhibition at 20 ppm in series [2], in [5] and in series [6] was at most 30% each time. The compound further showed a chromatographic logP in series [3] (method [a]) of 3.46. Also, in series [8], the fold induction at 300 ppm is over 2.
